Experimental data taken from patent US10322184B2, “Emulsions for intrapulmonary delivery” (Carnegie Mellon University, priority 2016, dated 2019).

System: Pseudomonas aeruginosa
Assay: Agar well diffusion assessment of emulsified tobramycin availability (effective tobramycin concentration)
Assay type: cell-based
Details: aqueous standard solution, 37° C., 24 hours
Procedure: The presence and availability of emulsified tobramycin was quantified via the commonly used agar well diffusion method of measuring antibiotic content. In this method, the surface of LB agar plates is inoculated with 500 μL of mid-log growth Pseudomonas aeruginosa in tryptic soy broth. Similar methods are disclosed in Omri et al. Pulmonary Retention of Free and Liposome-Encapsulated Tobramycin after Intratracheal Administration in Uninfected Rats and Rats Infected with Pseudomonas aeruginosa. Antimicrobial Agents and Chemotherapy. 1994, 38: 1090-1095. […] Following this evaluation, the effects of Vaq and Caq were assessed using emulsions with Cfs=2 mg/mL H2O of FSH-PEG, Vaq=0.5-2.5%, and Caq=40-200 mg/mL. […]
For each formulation evaluated, approximately 10 mL of emulsion was prepared in a 15-mL centrifuge tube and allowed to sit at room temperature without agitation for five minutes before sampling. […] Following incubation, circular inhibition zones produced by tobramycin that had diffused into the agar were imaged and measured. Interpolation from the inhibition zones of aqueous standard solutions was then used to determine effective tobramycin concentrations (i.e., the aqueous tobramycin concentration resulting in an identical inhibition area) for each emulsion evaluated. […] Three separate trials were performed for each emulsion formulation evaluated. […]

`NC[C@H]1O[C@H](O[C@H]2[C@H](O)[C@@H](O[C@H]3O[C@H](CO)[C@@H](O)[C@H](N)[C@H]3O)[C@H](N)C[C@@H]2N)[C@H](N)C[C@@H]1O` [tobramycin] was tested, and the “Aqueous tobramycin concentration producing the smallest measurable inhibition zone” value was 5 µg/mL.
